Structures are written as SMILES. pIC50: −log10 of the molar value.

Usually pIC50 stands for the IC50 on a negative log10 scale, so that one unit is a factor of ten.

The experiment deals with T1, Human PIP4K2C (Homo sapiens, UniProt Q8TBX8).
T1 construct: purchased Eurofins DiscoverX 87-0007-1094
T1 sequence (Q8TBX8 1-421): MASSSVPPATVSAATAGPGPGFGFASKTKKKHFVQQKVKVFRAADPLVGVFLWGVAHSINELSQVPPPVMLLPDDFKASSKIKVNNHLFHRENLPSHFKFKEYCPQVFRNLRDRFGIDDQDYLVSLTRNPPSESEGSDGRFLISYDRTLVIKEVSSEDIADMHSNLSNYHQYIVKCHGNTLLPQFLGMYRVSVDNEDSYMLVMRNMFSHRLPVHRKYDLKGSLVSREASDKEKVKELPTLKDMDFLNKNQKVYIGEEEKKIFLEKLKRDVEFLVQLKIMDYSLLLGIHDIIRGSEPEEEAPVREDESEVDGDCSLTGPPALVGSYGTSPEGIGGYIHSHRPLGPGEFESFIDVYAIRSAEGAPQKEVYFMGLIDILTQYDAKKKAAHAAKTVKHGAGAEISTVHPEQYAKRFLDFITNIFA
The experiment is described as follows: Enzyme binding assay (KINOMEscan), active site-directed competition binding. The conditions noted are these: 11-point dose response, duplicate, top concentration 5 micromolar; read-out: Pip4k2c Kd: IC50. Here is the method:
PIP4K2C binding constants disclosed herein were determined using the proprietary Human PIP4K2C binding assay (Catalog number 87-0007-1094, Eurofins DiscoverX, San Diego, CA). This assay measures active site-directed competition binding to an immobilized ligand (see https://doi.org/10.1038/nbt1068, herein incorporated by reference in its entirety). Experiments were conducted using an 11-point dose response curve, in duplicate, with a top starting concentration of 5 micromolar; the Levenberg-Marquardt algorithm was used to fit a Hill equation to dose-response data to calculate IC50 values (see Table 5).

On to `O=C1CCCN1c1cncc(Nc2ncc(Cl)c(N3CCC[C@H](c4ccccc4)C3)n2)c1` [Compound 44, (R)-1-(5-((5-chloro-4-(3-phenylpiperidin-1-yl)pyrimidin-2-yl)amino)pyridin-3yl)pyrrolidin-2-one], for which the pIC50 is greater than 6.30. As to `CC(=O)N1CCC(n2cc(-c3nc(Nc4cncc(N5CCCC5=O)c4)ncc3Cl)cn2)CC1` [Compound 48, 1-(5-((4-(1-(1-acetylpiperidin-4-yl)-1H-pyrazol-4-yl)-5-chloropyrimidin-2-yl)amino)pyridin-3-yl)pyrrolidin-2-one], the pIC50 is greater than 6.30.

For the compound `CN1CCC2(CC1)CCN(c1cncc(Nc3ncc(Cl)c(-c4cccc(-c5ccccc5)c4)n3)c1)C2=O` [Compound 132, 2-[5-[[5-chloro-4-(3-phenylphenyl)pyrimidin-2-yl]amino]-3-pyridyl]-8-methyl-2,8-diazaspiro[4.5]decan-1-one], the negative logarithm of the IC50 (pIC50) was greater than 6.30.

On to `O=C1CCCN1c1cncc(Nc2ncc(Cl)c(C3CCCN(C4CCC4)C3)n2)c1` (stereo not drawn) [Compound 145, 1-(5-((5-chloro-4-(1-cyclobutylpiperidin-3-yl)pyrimidin-2-yl)amino)pyridin-3-yl)pyrrolidin-2-one], for which the pIC50 is greater than 6.30. `CC1CN(c2nc(Nc3cncc(N4CCCC4=O)c3)ncc2Cl)CC(C)O1` (stereo not drawn) [Compound 114, 1-(5-((5-chloro-4-(2,6-dimethylmorpholino)pyrimidin-2-yl)amino)pyridin-3-yl)pyrrolidin-2-one]: the pIC50 was greater than 6.30. `O=C1CCCN1c1cncc(Nc2ncc(Cl)c(N3CCCC(c4ccccc4)C3)n2)c1` (stereo not drawn) [Compound 24, 1-(5-((5-chloro-4-(3-phenylpiperidin-1-yl)pyrimidin-2-yl)amino)pyridin-3-yl)pyrrolidin-2-one]: the pIC50 was greater than 6.30. Take `O=C1CCCN1c1cncc(Nc2ncc(Cl)c(-c3ccc(Cl)c(-c4ccccc4)c3)n2)c1` [Compound 6, 1-(5-((5-chloro-4-(6-chloro-[1,1′-biphenyl]-3-yl)pyrimidin-2-yl)amino)pyridin-3-yl)pyrrolidin-2-one]: the negative logarithm of the IC50 (pIC50) was greater than 6.30. As to `O=C1CCCN1c1cncc(Nc2ncc(Cl)c(-c3ccc(F)cc3)n2)c1` [Compound 118, 1-(5-((5-chloro-4-(4-fluorophenyl)pyrimidin-2-yl)amino)pyridin-3-yl)pyrrolidin-2-one], the pIC50 was greater than 6.30. In the case of `O=C1CCCN1c1ccc(Nc2ncc(F)c(-c3cccc(C4CC4)c3)n2)cn1` [Compound 147, 1-(5-((4-(3-cyclopropylphenyl)-5-fluoropyrimidin-2-yl)amino)pyridin-2-yl)pyrrolidin-2-one], the pIC50 is greater than 6.30.

With `Cc1cc(F)ccc1-c1nc(Nc2cncc(N3CCCC3=O)c2)ncc1Cl` [Compound 113, 1-(5-((5-chloro-4-(4-fluoro-2methylphenyl)pyrimidin-2-yl)amino)pyridin-3-yl)pyrrolidin-2-one], the negative-log IC50 (pIC50) was greater than 6.30. Turning to `CC(C)c1cccc(-c2nc(Nc3cncc(N4CCCC4=O)c3)ncc2Cl)c1` [Compound 98, 1-(5-((5-chloro-4-(3-isopropylphenyl)pyrimidin-2-yl)amino)pyridin-3-yl)pyrrolidin-2-one], the pIC50 was greater than 6.30. In the case of `O=C1CCCN1c1cncc(Nc2ncc(Cl)c(-c3cccc(C4CCCC4)c3)n2)c1` [Compound 40, 1-(5-((5-chloro-4-(3-cyclopentylphenyl)pyrimidin-2-yl)amino)pyridin-3-yl)pyrrolidin-2-one], the negative logarithm of the IC50 (pIC50) was greater than 6.30.

As for `Cc1ccc(-c2cccc(-c3nc(Nc4cncc(N5CCCC5=O)c4)ncc3Cl)c2)cc1` [Compound 3, 1-(5-((5-chloro-4-(4′-methyl-[1,1′-biphenyl]-3-yl)pyrimidin-2-yl)amino)pyridin-3-yl)pyrrolidin-2-one], the pIC50 was greater than 6.30. The value for `CC(=O)N1CCCC(c2nc(Nc3cncc(N4CCCC4=O)c3)ncc2Cl)C1` (stereo not drawn) [Compound 151, 1-(5-((4-(1-acetylpiperidin-3-yl)-5-chloropyrimidin-2-yl)amino)pyridin-3-yl)pyrrolidine-2-one] was greater than 6.30; that for `O=C1CCCN1c1cncc(Nc2ncc(Cl)c(N3CCC[C@@H](c4ccccn4)C3)n2)c1` (single isomer, unassigned) [Compound 124] was greater than 6.30. For the compound `O=C1CCCN1c1cncc(Nc2ncc(Cl)c(N3C(=O)CC[C@H]3c3ccccc3)n2)c1` [29, Enant A], the pIC50 is greater than 6.30. With `CCCCNC(=O)C1CCCN(c2nc(Nc3cncc(N4CCCC4=O)c3)ncc2Cl)C1` (stereo not drawn) [Compound 109, N-butyl-1-(5-chloro-2-((5-(2-oxopyrrolidin-1-yl)pyridin-3-yl)amino)pyrimidin-4-yl)piperidine-3-carboxamide], the pIC50 is greater than 6.30. With `O=C1CCCN1c1cncc(Nc2ncc(Cl)c(N3CCOC(c4ccccn4)C3)n2)c1` (stereo not drawn) [Compound 134, 1-[5-[[5-chloro-4-[2-(2-pyridyl)morpholin-4-yl]pyrimidin-2-yl]amino]-3-pyridyl]pyrrolidin-2-one], the negative-log IC50 (pIC50) was greater than 6.30. Turning to `O=C1CCCN1c1cncc(Nc2ncc(Cl)c(-c3ccc(C4CC4)cc3)n2)c1` [Compound 13, 1-(5-((5-chloro-4-(4-cyclopropylphenyl)pyrimidin-2-yl)amino)pyridin-3-yl)pyrrolidin-2-one], the negative-log IC50 (pIC50) was greater than 6.30.

Take `CN1CCCC(c2cccc(-c3nc(Nc4cncc(N5CCCC5=O)c4)ncc3Cl)c2)C1` (stereo not drawn) [Compound 33, 1-(5-((5-chloro-4-(3-(1-methylpiperidin-3-yl)phenyl)pyrimidin-2-yl)amino)pyridin-3-yl)pyrrolidin-2-one]: the pIC50 was greater than 6.30. The value for `O=C(C1COC1)N1CCCC(c2nc(Nc3cncc(N4CCCC4=O)c3)ncc2Cl)C1` (stereo not drawn) [Compound 160, 1-(5-((5-chloro-4-(1-(oxetane-3-carbonyl)piperidin-3-yl)pyrimidin-2-yl)amino)pyridin-3-yl)pyrrolidin-2-one] was greater than 6.30; that for `O=C1CCCN1c1cncc(Nc2ncc(Cl)c(-c3ccc(F)cc3F)n2)c1` [Compound 108, 1-(5-((5-chloro-4-(2,4-difluorophenyl)pyrimidin-2-yl)amino)pyridin-3-yl)pyrrolidin-2-one] was greater than 6.30. As for `CC1CCN(c2nc(Nc3cncc(N4CCCC4=O)c3)ncc2Cl)CC1` [Compound 102, 1-(5-((5-chloro-4-(4-methylpiperidin-1yl)pyrimidin-2-yl)amino)pyridin-3-yl)pyrrolidin-2-one], the pIC50 is greater than 6.30. On to `O=C1CCCN1c1cncc(Nc2ncc(Cl)c(-c3cccc(-c4ccccn4)c3)n2)c1` [Compound 9, 1-(5-((5-chloro-4-(3-(pyridin-2-yl)phenyl)pyrimidin-2-yl)amino)pyridin-3-yl)pyrrolidin-2-one], for which the pIC50 is greater than 6.30.

Consider `Cc1ccc(-c2ccccc2)cc1-c1nc(Nc2cncc(N3CCCC3=O)c2)ncc1Cl` [Compound 10, 1-(5-((5-chloro-4-(4-methyl-[1,1′-biphenyl]-3-yl)pyrimidin-2-yl)amino)pyridin-3-yl)pyrrolidin-2-one], for which the pIC50 was greater than 6.30. `O=C1CCCN1c1cncc(Nc2ncc(Cl)c(C3CCCN(C4CC4)C3)n2)c1` (stereo not drawn) [Compound 149, 1-(5-((5-chloro-4-(1-cyclopropylpiperidin-3-yl)pyrimidin-2-yl)amino)pyridin-3-yl)pyrrolidin-2-one]: the pIC50 is greater than 6.30. On to `O=C1CCCN1c1cncc(Nc2ncc(Cl)c(-c3ccc(Cl)cc3)n2)c1` [Compound 93, 1-(5-((5-chloro-4-(4-chlorophenyl)pyrimidin-2-yl)amino)pyridin-3-yl)pyrrolidin-2-one], for which the pIC50 is greater than 6.30. To `COc1ccc(-c2ccccc2)cc1-c1nc(Nc2cncc(N3CCCC3=O)c2)ncc1Cl` [Compound 21, 1-(5-((5-chloro-4-(4-methoxy-[1,1′-biphenyl]-3-yl)pyrimidin-2-yl)amino)pyridin-3-yl)pyrrolidin-2-one] belongs greater than 6.30; to `O=C(c1cccc(=O)[nH]1)N1CCCC(c2nc(Nc3cncc(N4CCCC4=O)c3)ncc2Cl)C1` (stereo not drawn) [Compound 161, 6-(3-(5-chloro-2-((5-(2-oxopyrrolidin-1-yl)pyridin-3-yl)amino)pyrimidin-4-yl)piperidine-1-carbonyl)pyridin-2(1H)-one], greater than 6.30. Regarding `O=C(c1ccc(F)cc1)N1CCCC(c2nc(Nc3cncc(N4CCCC4=O)c3)ncc2Cl)C1` (stereo not drawn) [Compound 162, 1-(5-((5-chloro-4-(1-(4-fluorobenzoyl)piperidin-3-yl)pyrimidin-2-yl)amino)pyridin-3-yl)pyrrolidin-2-one], the pIC50 is greater than 6.30.

For `Cc1ccccc1-c1nc(Nc2cncc(N3CCCC3=O)c2)ncc1Cl` [Compound 116, 1-(5-((5-chloro-4-(o-tolyl)pyrimidin-2-yl)amino)pyridin-3-yl)pyrrolidin-2-one], the negative-log IC50 (pIC50) was greater than 6.30. Regarding `O=C1CCCN1c1cncc(Nc2ncc(Cl)c(-c3cccc(Cl)c3)n2)c1` [Compound 92, 1-(5-((5-chloro-4-(3-chlorophenyl)pyrimidin-2-yl)amino)pyridin-3-yl)pyrrolidin-2-one], the pIC50 is greater than 6.30. As for `O=C1CCCN1c1cncc(Nc2ncc(Cl)c(-c3cccc(C4CC4)c3)n2)c1` [Compound 12, 1-(5-((5-chloro-4-(3-cyclopropylphenyl)pyrimidin-2-yl)amino)pyridin-3-yl)pyrrolidin-2-one], the negative-log IC50 (pIC50) was greater than 6.30.
